Test results taken from patent US20250387324A1, “IN SITU FORMING IMPLANTS AND MICROPARTICLES FOR INTRAARTICULAR DRUG DELIVERY” (Mississippi State University, priority 2024, published 2025).

Experiments:
[1] = system: IL-1β production by human THP-1 macrophages; assay: LPS-stimulated IL-1β production by THP-1 macrophages (ELISA); format: cell-based
Source text: (§1) In addition to the inhibition of released collagenases, PCG is capable of suppressing the biosynthesis of inflammatory mediators that play important roles in the pathogenesis of OA. Such chondroprotective properties were investigated using THP-1 monocytes that had been differentiated into macrophages. THP-1 is a human leukemia monocytic cell line. THP-1 monocytes were expanded by suspension culture in RPMI 1640 medium supplemented with 10% FBS and 1% antibiotic-antimycotic solution. They were differentiated into macrophages by adding PMA to a final concentration of 20 nM and transferring them to monolayer culture for 72 h.^13 Inflammation was then induced by treatment with 1 μg/ml LPS. PCG was first dissolved at 5 mM in complete culture medium. One hour after LPS stimulation, cells were treated with PCG at final concentrations of 4, 20, 100, and 500 μM. Culture supernatant was collected 24 h later and IL-1β quantified using ELISA, with results expressed as a percentage of the unstimulated control.

[2] = system: prostaglandin E2 (PGE2) production by human THP-1 macrophages; assay: LPS-stimulated PGE2 production by THP-1 macrophages (LC-MS/MS); format: cell-based
Source text: as §1
In addition to IL-1β, prostaglandin E2 (PGE2) in the culture supernatants was quantified using mass spectrometry. […] The residues were then reconstituted in 100 μL of methanol and analyzed by liquid chromatography with tandem mass spectrometry (LC-MS/MS), as previously described.^13

[3] = system: type 2 collagenase; assay: Inhibition of collagenase-mediated cartilage degradation (pig cartilage disks, residual mass); format: biochemical
Method: The stability of PCG within a PLGA implant was examined by determining the ability of released PCG to inhibit collagenase-mediated cartilage degradation. Pig stifle (knee) joints were obtained from a local meat processor and full-thickness, cylindrical disks of articular cartilage (5 mm diameter) were harvested from the distal femurs. The disks were freeze-dried, weighed, and placed in Dulbecco's Modified Eagle Medium (DMEM) containing 0.0025% type 2 collagenase with and without 100 μM PCG (n=12 disks per group). Samples were incubated at 37° C. under gentle orbital shaking. At 3, 6, 9, and 12 days of incubation, three disks from each group were rinsed in distilled water, freeze-dried and weighed again, while the rest were allowed to continue incubation after adding fresh collagenase. The same experiment was repeated using implants made with 20% PLGA (50:50), NMP/BB 90/10, and 0 or 32 mg PCG per gram total implant weight (n=12 per group). Implants were formed in microcentrifuge tubes by pipetting 100 μl of the solution into distilled water. One hour later the water was replaced by the collagenase solution. Custom 3D-printed baskets were used to suspend the cartilage disks in the collagenase just above the implants. Disks were collected and weighed at the same 3-day intervals, with replacement of the collagenase solution each time. PCG concentration in the spent collagenase solution was determined by measuring absorbance at 373 nm and comparing to a standard curve generated from serial dilutions of PCG dissolved directly into DMEM. For both experiments, data are reported as residual mass of cartilage (final weight/initial weight). The overall effect of PCG was analyzed by two-way ANOVA with treatment and time as factors. Statistically significant effects of PCG at each time point were determined by independent t-test (equal variances not assumed).

[4] = Solvent screening for dissolving PCG; format: physicochemical
Method: The present inventor has developed a suitable in situ forming implant for sustained delivery of PCG. Polycarbonate, poly(lactic acid), and poly(lactide-co-glycolide) (PLGA) were dissolved in various solvents and screened for combinations that could also dissolve punicalagin and release it gradually from an implant formed in situ. PLGA emerged as the polymer that offered the best opportunity for the tuning of PCG release kinetics. Systems composed of PLGA and PCG dissolved in N-methyl-2-pyrrolidone (NMP) and/or benzyl alcohol (BA) consistently formed solid or hydrogel implants. […] Thus, one aspect of this invention is the characterization of PLGA in situ forming implants (originating from solutions containing NMP, BA, and BB) with respect to PCG stability and release kinetics.

[5] = system: adjuvant-induced arthritis; conditions: daily intraperitoneal doses, 50 mg/kg; cited from earlier work
[6] = system: monoiodoacetate-induced model of OA; conditions: cited from earlier work
[7] = 6% w/w PCG-containing diet for 37 days; cited from earlier work
[8] = system: fibroblast synoviocytes; conditions: cited from earlier work
[9] = system: murine monocyte/macrophage-like cells; conditions: dose-dependent; cited from earlier work
[10] = system: RAW264.7 murine macrophages; conditions: cited from earlier work
[11] = biological target: collagen type II (Homo sapiens, UniProt P02458); conditions: non-covalent; cited from earlier work
[12] = system: collagenase; conditions: in vitro; cited from earlier work

Chain of collagen type II (P02458 182-1241 limits assumed): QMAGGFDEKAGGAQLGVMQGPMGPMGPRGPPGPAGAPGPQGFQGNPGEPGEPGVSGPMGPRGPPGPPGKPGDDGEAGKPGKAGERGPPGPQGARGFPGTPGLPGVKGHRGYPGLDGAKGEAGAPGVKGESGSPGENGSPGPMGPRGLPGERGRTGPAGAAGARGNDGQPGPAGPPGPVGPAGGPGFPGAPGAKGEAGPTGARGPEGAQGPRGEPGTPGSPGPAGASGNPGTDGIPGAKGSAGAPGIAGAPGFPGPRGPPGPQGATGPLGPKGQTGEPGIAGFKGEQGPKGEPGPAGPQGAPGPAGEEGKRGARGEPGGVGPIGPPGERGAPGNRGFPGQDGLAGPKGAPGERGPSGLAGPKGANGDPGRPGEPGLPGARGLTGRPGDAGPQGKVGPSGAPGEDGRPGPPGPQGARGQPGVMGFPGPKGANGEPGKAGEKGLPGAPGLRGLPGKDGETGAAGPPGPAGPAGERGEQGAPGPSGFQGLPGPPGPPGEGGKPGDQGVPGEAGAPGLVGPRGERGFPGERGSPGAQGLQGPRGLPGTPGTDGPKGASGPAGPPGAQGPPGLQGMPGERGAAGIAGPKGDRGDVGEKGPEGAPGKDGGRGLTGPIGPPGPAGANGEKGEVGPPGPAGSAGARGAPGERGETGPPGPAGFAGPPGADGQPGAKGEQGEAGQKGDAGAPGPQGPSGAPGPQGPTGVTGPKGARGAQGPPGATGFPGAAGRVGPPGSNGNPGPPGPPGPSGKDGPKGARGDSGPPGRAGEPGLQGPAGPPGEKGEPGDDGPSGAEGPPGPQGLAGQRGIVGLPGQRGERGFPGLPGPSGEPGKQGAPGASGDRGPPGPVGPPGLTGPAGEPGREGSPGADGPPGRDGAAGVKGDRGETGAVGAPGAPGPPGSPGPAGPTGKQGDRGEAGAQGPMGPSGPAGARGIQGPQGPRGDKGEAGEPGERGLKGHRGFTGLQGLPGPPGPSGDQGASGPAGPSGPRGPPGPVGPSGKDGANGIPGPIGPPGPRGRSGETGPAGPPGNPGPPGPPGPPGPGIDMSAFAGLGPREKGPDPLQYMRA

## O=C1O[C@H]2[C@@H]3OC(=O)c4cc(O)c(O)c(O)c4-c4c(O)c(O)c5oc(=O)c6c(c(O)c(O)c7oc(=O)c4c5c76)-c4c(cc(O)c(O)c4O)C(=O)OC[C@H]3OC(O)[C@@H]2OC(=O)c2cc(O)c(O)c(O)c2-c2c1cc(O)c(O)c2O (mixture of isomers) [PCG, punicalagin]
[1]; PCG 4 μM, added 1 h after 1 μg/ml LPS, supernatant at 24 h
  LPS-stimulated IL-1β production: return to the unstimulated control level
[1]; PCG 20 μM and above
  LPS-stimulated IL-1β production: suppression of practically all IL-1β synthesis
[2]; PCG 500 μM
  attenuation of LPS-stimulated production of PGE2: approximately 85%
[2]; PCG in the range of 4-100 μM
  decrease in PGE2 production: about 35%
[3]; 100 μM PCG added directly, 12 days, 0.0025% type 2 collagenase
  cartilage mass loss: about 55%
[3]; added directly to collagenase solution or released from an ISI
  collagenase-mediated degradation of cartilage: significantly inhibited
[3]; judged by collagenase inhibition of released PCG
  stability of PCG within PLGA ISI: at least 12 days
[4]
  solubility of PCG in benzyl benzoate (BB): did not dissolve
[5]
  paw edema: significantly reduced paw edema
[6]; intraarticular PCG study
  systemic toxicity (histology of major organs): no evidence of systemic toxicity
[6]; semi-weekly intraarticular injections, 9.2 mM PCG solution
  erosion of cartilage compared to saline control: less overall erosion of cartilage
[7]
  systemic toxicity: no systemic toxicity
[8]
  TNF-α induced expression of IL-1β: reduce
  TNF-α induced expression of IL-6: reduce
  TNF-α induced expression of MMP-13: reduce
[9]
  lipopolysaccharide-stimulated production of IL-6: suppressed
  lipopolysaccharide-stimulated production of nitric oxide (NO): suppressed
  lipopolysaccharide-stimulated production of prostaglandin E2 (PGE2): suppressed
[10]
  LPS-induced production of IL-1β: attenuated
  LPS-induced production of PGE2: attenuated
[11]
  binding to collagen type II: high affinity
[12]
  collagenase enzymatic activity: inhibit its enzymatic activity
